Like-named read-outs stand apart in the source and are kept apart here.

The nature of data set [1]: Solubility in water. Type of data set: physicochemical.
Data set [2] deals with human vaginal epithelial cells of the A-431 cell line. Type of data set: cell-based. As to the method:
Test of totarol impact on the human vaginal epithelial cells of the A-431 cell line (ATCC® The study was carried out using the following test: Annexin-V-Fluos (Roche, Mannheim, Germany), during incubation for 2, 8 and 24 hours, under in vitro conditions, according to the instructions of the test's manufacturer. The totarol sample was prepared by dissolution of 3 mg of totarol in 3 ml of 100% DMI.
The cultivation time for the A-431 cell line was 20 days. The culture was carried out at a temperature of 37° C. in an atmosphere containing 10% CO2, on a DMEM culture medium (Institute of Immunology and Experimental Therapy PAS [IITD PAN], Wroclaw), with an addition of 10% of foetal bovine serum (FBS, Sigma-Aldrich). The culture fluid were being replaced regularly every 48 hours. After achieving a decantable growth or the so-called “monolayer”, the cells were passaged using (for approx. 10 min) 0.25% trypsin (Sigma-Aldrich). Then, the obtained tissue line was passed to 24-well plates (TPP), adjusting their densities to the value of 5×10^5 per well. The tissue culture of the studied lines was carried out for 3 next days on the surface of sterile microscope slides placed on the bottom of a 24-well plate, until a decantable growth was obtained on the surface of the microscope slides. After obtaining the so-called “monolayer”, the cells were washed with PBS without Ca^2+ and Mg^2+ ions (IITD PAN, Wroclaw), and poured with 700 µl of fresh DMEM medium with 10% FBS, together with 300 μl of properly prepared totarol. • Negative control: 1000 μl of fresh DMEM medium with 10% FBS. • Solvent control: 700 μl of fresh DMEM medium with 10% FBS+300 μl of DMI solvent. • Necrosis positive control: 900 μl of fresh DMEM medium with 10% FBS+100 μl H2O2 (30%). The proper examination using the Annexin-V-Fluos test causes green staining of apoptotic cells. […] This dye has an ability to penetrate the cell's interior freely only through a damaged cellular membrane, staining the interior red. In the case of a lack of damages of the cellular membrane, propidium iodide remains on its surface, forming a characteristic red “halo” around the cell. After a corresponding study time, i.e. 2, 8, and 24 hours, the culture fluid was removed, the content was washed with PBS (pre-heated to a temperature of 37° C.) twice. Then, 100 μl of the fluorescent stains mixture including in the Annexin-V-Fluos (Roche) kit were applied on the surface of each microscope slide (placed in a culture well) and additionally, Hoechst stain was used (cellular DNA staining). The staining procedure was carried out according to the manufacturer's recommendations. The culture together with the stains applied onto it were incubated at room temperature for 20 min. The intensity of light emitted by the cells stained with the individual stains was observed using a fluorescent microscope at the wavelength of 494-520 nm, using 400× magnification. The cells were counted in five visual fields, and the results were averaged. The reliability of the tests carried out is confirmed by hydrogen peroxide used as a positive control, causing a distinct necrosis process already after 2 hours of incubation. Data analyses were carried out on the basis of the average number of cells from five visual fields in the individual times (2, 8, and 24 h). The results are presented in Table 6 and in the form of photographic documentation—FIGS. 1, 2, 3, 4.

For `CC(C)c1c(O)ccc2c1CC[C@H]1C(C)(C)CCC[C@]21C` [Totarol, totarol], the solubility in water entry in data set [1] is reported as “complete lack of solubility in water”. In addition, in data set [2], the “apoptosis and necrosis in epithelial cells, photographic documentation” value is “No apoptosis and necrosis”; the “apoptotic and necrotic impact on human vaginal epithelial A-431 cells” value is “lack of apoptotic and necrotic impact”. In data set [2] (human, 2 h, 0.3 mg/mL), this compound returned an Alive cells of 100, an Apopt. cells of 0 and a Necrot. cells of 0. In data set [2] (human, 8 h, 0.3 mg/mL), this compound showed an Alive cells of 100, an Apopt. cells of 0 and a Necrot. cells of 0. Further, in data set [2] (human, 24 h, 0.3 mg/mL), the Alive cells amounted to 100, the Apopt. cells is recorded as 0 and the “Necrot. Cells” value is on record as 0.

These data come from US11534412B2, “Application of totarol and pharmaceutical composition containing totarol” (Emergopharm SP. Z O.O. SP.K., priority 2017, dated 2022).
